Here are results for four molecules from US5972670A, “Blue copper oxidase mutants with enhanced activity” (priority 1998, dated 1999).

Where two headings read alike, the source gives them in different places.

Data set [1] has as its target Myceliophthora thermophila laccase (MtL) mutant "T" V509L/S510E/G511A (pBANe22T) (Thermothelomyces thermophilus, UniProt G2QG31, G554A/S553E/V552L). In kind it is biochemical. As for the experimental part: (§1) The molecular weights of the mature laccases are used to calculate both extinction coefficients and turnover numbers. The molecular weights are determined from the deduced amino acid sequences of the DNA sequences (FIG. 6: SEQ ID NOS:24 and 25, and FIG. 7: SEQ ID NOS:26 and 27). Protein concentrations (expressed as subunits) are measured based on the extinction coefficients determined by quantitative amino acid analysis.
(§2) Km and kcat are obtained from the initial rate (v), enzyme concentration (E), and substrate concentration (S) in accordance to the equation v=kcat ES/(Km +S) by non-linear regression fitting using the Prizm program (GraphPad, San Diego, Calif.). […] The O2 concentration in air-saturated buffer solution is assumed as the same in plain water (0.28 mM).

In data set [2] the target is Rhizoctonia solani laccase isozyme 4 (RsL) mutant "T" L466V/E467S/A468G (pJiWa85) (Thanatephorus cucumeris, UniProt Q02081). Format: biochemical. The procedure: as §1, §2
Data set [3] addresses Rhizoctonia solani laccase isozyme 4 (RsL) mutant "M" L470F (pJiWa86) (Thanatephorus cucumeris, UniProt Q02081). In kind it is biochemical. The procedure: as §1, §2
Data set [4] deals with Myceliophthora thermophila laccase (MtL) mutant "M" L513F (pRaMB17M) (Thermothelomyces thermophilus, UniProt G2QG31, form not given/L556F). In kind it is biochemical. The procedure: as §1, §2
Data set [5] concerns the target T1, Myceliophthora thermophila laccase (lcc-1; MtL), wild type (pRaMB17), SEQ ID NO:27 (Thermothelomyces thermophilus, UniProt G2QG31).
T1 sequence (G2QG31 with tags, fused parts or gaps INS108NSII/R109G/T291C/S323N/P398A/P430A/T522S/A533S/H588R): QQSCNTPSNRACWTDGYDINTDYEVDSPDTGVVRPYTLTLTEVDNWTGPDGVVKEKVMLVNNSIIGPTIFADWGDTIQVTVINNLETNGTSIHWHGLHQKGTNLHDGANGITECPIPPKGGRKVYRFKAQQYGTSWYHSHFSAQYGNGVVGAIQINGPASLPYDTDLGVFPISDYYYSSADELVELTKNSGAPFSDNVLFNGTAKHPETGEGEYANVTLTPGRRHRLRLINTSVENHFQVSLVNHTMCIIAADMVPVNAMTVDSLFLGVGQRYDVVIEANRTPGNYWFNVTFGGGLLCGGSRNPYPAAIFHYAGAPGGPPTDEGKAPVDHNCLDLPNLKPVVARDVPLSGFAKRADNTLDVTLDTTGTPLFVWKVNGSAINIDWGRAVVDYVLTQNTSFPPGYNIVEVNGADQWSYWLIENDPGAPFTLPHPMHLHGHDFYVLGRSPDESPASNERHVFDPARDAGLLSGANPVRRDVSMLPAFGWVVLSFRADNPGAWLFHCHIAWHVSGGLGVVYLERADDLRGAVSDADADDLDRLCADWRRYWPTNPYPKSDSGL
Put plainly: Syringaldazine and ABTS oxidase kinetics (Km, kcat), MtL wt. To be noted: 8 mM MES-NaOH buffer, pH 5.3, spectroscopic. The procedure: as §1, §2

In data set [6] the target is T2, Rhizoctonia solani laccase isozyme 4 (rsl4; RsL), wild type (pJiWa59), SEQ ID NO:25 (Thanatephorus cucumeris, UniProt Q02081).
T2 sequence (Q02081 21-531): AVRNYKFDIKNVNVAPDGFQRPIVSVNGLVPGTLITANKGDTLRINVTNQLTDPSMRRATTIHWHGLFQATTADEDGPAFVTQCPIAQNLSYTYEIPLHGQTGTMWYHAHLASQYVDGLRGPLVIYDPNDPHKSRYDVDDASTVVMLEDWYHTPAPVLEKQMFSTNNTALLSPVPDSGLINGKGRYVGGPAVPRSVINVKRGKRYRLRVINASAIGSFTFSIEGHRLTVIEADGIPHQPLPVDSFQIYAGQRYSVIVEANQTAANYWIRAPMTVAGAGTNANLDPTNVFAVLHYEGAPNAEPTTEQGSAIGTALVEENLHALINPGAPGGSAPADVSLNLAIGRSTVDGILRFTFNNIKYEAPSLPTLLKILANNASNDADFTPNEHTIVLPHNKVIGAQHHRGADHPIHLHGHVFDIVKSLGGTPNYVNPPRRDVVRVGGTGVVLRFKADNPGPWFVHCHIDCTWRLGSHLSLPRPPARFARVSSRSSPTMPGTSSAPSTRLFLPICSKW
As to the kind of experiment: Syringaldazine and ABTS oxidase kinetics (Km, kcat), RsL wt. In kind it is biochemical. To be noted: 8 mM MES-NaOH buffer, pH 5.3, spectroscopic. As for the experimental part: as §1, §2

Substrate in data set [7]: CCn1c(=NN=c2sc3cc(S(=O)(=O)O)ccc3n2CC)sc2cc(S(=O)(=O)O)ccc21
Put plainly: purified protein, by the assay type. To be noted: 8 mM MES-NaOH buffer, pH 5.3, spectroscopic.

Substrate in data set [8]: COc1cc(C=NN=Cc2cc(OC)c(O)c(OC)c2)cc(OC)c1O
Put plainly: purified protein, by the assay type. The following applies: 8 mM MES-NaOH buffer, pH 5.3, spectroscopic.

Where [9] appears, read: 8 mM MES-NaOH buffer, pH 5.3, spectroscopic.
Setting [10] is: read-out: Km (ABTS), 8 mM MES-NaOH buffer, pH 5.3, spectroscopic.
Where [11] appears, read: read-out: Km (SGZ), 8 mM MES-NaOH buffer, pH 5.3, spectroscopic.

Take `CCn1c(=NN=c2sc3cc(S(=O)(=O)O)ccc3n2CC)sc2cc(S(=O)(=O)O)ccc21` [ABTS, 2,2'-azinobis(3-ethylbenzthiazoline-6-sulfonic acid)]: the “kcat (ABTS)” value in data set [1] (setting [9]) amounted to 8.83 ± 0.333 s⁻¹; in data set [2] (setting [9]), 0.333 ± 0.017 s⁻¹; in data set [3] (setting [9]) it was 12.7 ± 0.5 s⁻¹; in data set [4] (setting [9]), 30 ± 1.67 s⁻¹; in data set [5], 63.33 ± 5 s⁻¹; in data set [6] it was 41.67 ± 1.67 s⁻¹. Also, the Michaelis constant (Km) in data set [2] (setting [10]) amounted to 60 ± 4 µM; in data set [3] (setting [10]), 125 ± 13 µM; in data set [4] (setting [10]), 43 ± 3 µM.
Take `COc1cc(C=NN=Cc2cc(OC)c(O)c(OC)c2)cc(OC)c1O` [SGZ, syringaldazine]: the “kcat (SGZ)” value in data set [1] (setting [9]) turned out to be 6 ± 0.333 s⁻¹; in data set [2] (setting [9]) it was 0.0183 ± 0.0017 s⁻¹; in data set [3] (setting [9]), 4.25 ± 0.183 s⁻¹; in data set [4] (setting [9]), 55 ± 1.67 s⁻¹; in data set [6], 9.17 ± 0.667 s⁻¹. Moreover, the Km in data set [1] (setting [11]) amounted to 0.9 ± 0.2 µM; in data set [2] (setting [11]), 3.9 ± 0.3 µM; in data set [3] (setting [11]) it was 35 ± 4 µM; in data set [4] (setting [11]), 1.8 ± 0.2 µM.

B1: Myceliophthora thermophila laccase (lcc-1; MtL), wild type (pRaMB17), SEQ ID NO:27 (Thermothelomyces thermophilus ATCC 42464) (protein)
chain: QQSCNTPSNRACWTDGYDINTDYEVDSPDTGVVRPYTLTLTEVDNWTGPDGVVKEKVMLVNNSIIGPTIFADWGDTIQVTVINNLETNGTSIHWHGLHQKGTNLHDGANGITECPIPPKGGRKVYRFKAQQYGTSWYHSHFSAQYGNGVVGAIQINGPASLPYDTDLGVFPISDYYYSSADELVELTKNSGAPFSDNVLFNGTAKHPETGEGEYANVTLTPGRRHRLRLINTSVENHFQVSLVNHTMCIIAADMVPVNAMTVDSLFLGVGQRYDVVIEANRTPGNYWFNVTFGGGLLCGGSRNPYPAAIFHYAGAPGGPPTDEGKAPVDHNCLDLPNLKPVVARDVPLSGFAKRADNTLDVTLDTTGTPLFVWKVNGSAINIDWGRAVVDYVLTQNTSFPPGYNIVEVNGADQWSYWLIENDPGAPFTLPHPMHLHGHDFYVLGRSPDESPASNERHVFDPARDAGLLSGANPVRRDVSMLPAFGWVVLSFRADNPGAWLFHCHIAWHVSGGLGVVYLERADDLRGAVSDADADDLDRLCADWRRYWPTNPYPKSDSGL
With B1, the Km in data set [7] (other: MtL wt) amounted to 110 ± 20 µM; in data set [8] (other: MtL wt), 1.4 ± 0.2 µM.

B2: Rhizoctonia solani laccase isozyme 4 (rsl4; RsL), wild type (pJiWa59), SEQ ID NO:25 (Thanatephorus cucumeris) (protein)
chain: AVRNYKFDIKNVNVAPDGFQRPIVSVNGLVPGTLITANKGDTLRINVTNQLTDPSMRRATTIHWHGLFQATTADEDGPAFVTQCPIAQNLSYTYEIPLHGQTGTMWYHAHLASQYVDGLRGPLVIYDPNDPHKSRYDVDDASTVVMLEDWYHTPAPVLEKQMFSTNNTALLSPVPDSGLINGKGRYVGGPAVPRSVINVKRGKRYRLRVINASAIGSFTFSIEGHRLTVIEADGIPHQPLPVDSFQIYAGQRYSVIVEANQTAANYWIRAPMTVAGAGTNANLDPTNVFAVLHYEGAPNAEPTTEQGSAIGTALVEENLHALINPGAPGGSAPADVSLNLAIGRSTVDGILRFTFNNIKYEAPSLPTLLKILANNASNDADFTPNEHTIVLPHNKVIGAQHHRGADHPIHLHGHVFDIVKSLGGTPNYVNPPRRDVVRVGGTGVVLRFKADNPGPWFVHCHIDCTWRLGSHLSLPRPPARFARVSSRSSPTMPGTSSAPSTRLFLPICSKW
Regarding B2, the figures for the Km in data set [7] (other: RsL wt) and in data set [8] (other: RsL wt) were 52 ± 6 µM and 28 ± 4 µM, respectively.

What is called Km is the concentration of substrate that gives half-maximal velocity.
